“Also recorded” adds a separate entry of the source.
Tests used:
Assay type in all cases: cell-based
[1] = molecular target: Udorn M2 (M2 protein of Influenza A virus) (Influenza A virus (A/Udorn/307/1972(H3N2)), UniProt P0DOF5)
[2] = molecular target: M2 (WSN, N31S) (M2 protein of Influenza A virus) (Influenza A virus (A/Wilson-Smith/1933(H1N1)), UniProt P05780, N31S)
[3] = molecular target: T1, M2 (WSN) (M2 protein of Influenza A virus) (Influenza A virus (A/Wilson-Smith/1933(H1N1)), UniProt P05780); details: inducing media (galactose), 30° C., A600 versus time; amantadine 100 μM (FIG. 4)
T1 construct: amantadine-resistant, natural Asn31

SMILES: NC12CC3CC(CC(C3)C1)C2 [amantadine]
- growth of yeast transformants expressing the Udorn allele of M2 in the presence of amantadine [1]: growth rescue; also recorded: grow at near wild-type rates
- toxicity of overexpressed WSN(N31S) M2 allele in yeast on addition of amantadine to the media [2]: blocked
- growth of yeast transformants expressing the amantadine-resistant WSN allele of M2 in the presence of amantadine [3]: not remediated
